Converted amounts (≈) assume the structure as drawn.
Key:
[1] = Determination of aqueous solubility (vortex 1 h at 25 °C, centrifugation, filtration, HPLC); format: physicochemical; settings: for solubility at 1 h: thermodynamic from solid; for Aqueous solubility compared with vitexin: at different pH
Protocol: HPLC was performed with an Agilent® 1100 series HPLC system (Santa Clara, CA, USA) equipped with a gradient pump (Waters 600, Waters, Milford, MA, USA). The stationary phase was a C18 column (Sharpsil H-C18, 5 μm, 4.6 i.d. × 250 mm, Sharpsil, Bei-jing, China), and the mobile phase was 1% acetic acid in water (A) and methanol (B). The elution condition was a linear gradient from 0 min with 40% B to 20 min with 70% B; an isocratic elution from 20 min to 25 min with 70% B; a linear gradient from 25 min with 70% B to 28 min with 40% B; and an isocratic elution from 28 min to 35 min with 40% B. All elutions were performed at a flow rate of 1 mL/min. The sample volume was 10 µL. The detection condition was set at 254 nm.
The aqueous solubility of vitexin and its glucoside derivatives was examined as follows. Each compound was vortexed in double-deionized H2O, PB at pH 6, or pH 8, for 1 h at 25 °C. The mixture was centrifuged at 10,000× g for 30 min at 25 °C. The supernatant was filtered through a 0.2 µm nylon membrane, mixed with an equal volume of methanol, and analyzed by HPLC. The concentration of the tested compounds was determined on the basis of their peak areas, using calibration curves prepared by HPLC analyses of authentic samples.

[2] = set-up: method as in PMID 32292045; settings: poor bioavailability; cited from earlier work
[3] = PB (buffer), aqueous buffer, PB at pH 6, 25 °C
[4] = PB (buffer), aqueous buffer, PB at pH 8, 25 °C
[5] = double-deionized water, water, Deionized H2O at pH 7, 25 °C

Row | SMILES | solubility at 1 h [1, 3] [µg/mL] | solubility at 1 h [1, 4] [µg/mL] | Fold increase in aqueous solubility relative to vitexin in deionized H2O (normalized to 1) ([1]; PB at pH 6) | Fold increase in aqueous solubility relative to vitexin in deionized H2O (normalized to 1) ([1]; PB at pH 8) | Aqueous solubility compared with vitexin [1] | solubility at 1 h [1, 5] [µg/mL] | Fold increase in aqueous solubility relative to vitexin in deionized H2O (normalized to 1) ([1]; Deionized H2O at pH 7) | Absorption in the gastrointestinal tract [2]
1 | O=c1cc(-c2ccc(O)cc2)oc2c(C3OC(CO)C(O)C(O)C3O)c(O)cc(OC3OC(CO)C(O)C(O)C3O)c12 (stereo not drawn) [Vitexin-5-O-β-glucoside (2), vitexin-5-O-β-glucoside] | 444 ± 45 (≈ 747 µM) | 767 ± 21.6 (≈ 1290 µM) | 11.9 | 20.6 | higher than that of vitexin | 735 ± 51.7 (≈ 1240 µM) | – | –
2 | O=c1cc(-c2ccc(OC3OC(CO)C(O)C(O)C3O)cc2)oc2c(C3OC(CO)C(O)C(O)C3O)c(O)cc(O)c12 (stereo not drawn) [Vitexin-4′-O-β-glucoside (1), vitexin-4′-O-β-glucoside] | 943 ± 212 (≈ 1590 µM) | 1800 ± 229 (≈ 3030 µM) | 25.3 | 48.4 | higher than that of vitexin | 941 ± 68.7 (≈ 1580 µM) | 25.3 | –
3 | O=c1cc(-c2ccc(O)cc2)oc2c([C@@H]3O[C@H](CO)[C@@H](O)[C@H](O)[C@H]3O)c(O)cc(O)c12 [Vitexin, apigenin-8-C-glucoside] | 7.1 ± 1.2 (≈ 16.4 µM) | 157 ± 3.1 (≈ 364 µM) | 0.2 | 4.2 | – | 37.2 ± 2.8 (≈ 86 µM) | 1 | approximately 5%
